Patent publication US20260262643A1, “HERBICIDAL BENZOXAZINES” (FMC CORPORATION, priority 2022, published 2026)

Experiments:
[1] = tested on: ryegrass, Italian; assay: Test C preemergence; type: in vivo, Lolium multiflorum
In short: (§1)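 Greenhouse herbicide screen, 10-day duration. Test chemicals in solvent/surfactant blend were sprayed onto soil at sowing (pre) or onto 2–10 cm seedlings at one to two leaves (post); injury scored visually against controls, 0 no effect to 100 complete control.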

[2] = tested on: rice; assay: Test D flooded paddy test; type: in vivo, Oryza sativa; settings: 250 g ai/ha, applied to paddy water, visual rating after 13 to 14 days, scale 0 to 100 (0 no effect, 100 complete control)
In short: (§2)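 2-leaf plants; flood 3 cm above soil; compound dosed into paddy water; greenhouse 13–14 d; visual rating vs controls, 0–100 (100 = complete control); dash = not tested.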

[3] = tested on: ryegrass, Italian; assay: Test C postemergence; type: in vivo, Lolium multiflorum; settings: 10 days, 0 to 100 scale (0 no effect, 100 complete control)
In short: as §1

[4] = tested on: blackgrass; assay: Test C postemergence; type: in vivo, Alopecurus myosuroides; settings: 10 days, 0 to 100 scale (0 no effect, 100 complete control)
In short: as §1

[5] = tested on: ducksalad; assay: Test D flooded paddy test; type: in vivo, Heteranthera limosa; settings: 250 g ai/ha, applied to paddy water, visual rating after 13 to 14 days, scale 0 to 100 (0 no effect, 100 complete control)
In short: as §2

[6] = tested on: barnyardgrass; assay: Test D flooded paddy test; type: in vivo, Echinochloa crus-galli; settings: 250 g ai/ha, applied to paddy water, visual rating after 13 to 14 days, scale 0 to 100 (0 no effect, 100 complete control)
In short: as §2

[7] = tested on: ragweed; assay: Test C preemergence; type: in vivo, Ambrosia artemisiifolia
In short: as §1

[8] = tested on: ragweed; assay: Test C postemergence; type: in vivo, Ambrosia artemisiifolia; settings: 500 g ai/ha, postemergence, 10 days, 0 to 100 scale (0 no effect, 100 complete control)
In short: as §1

[9] = tested on: pigweed, palmer; assay: Test C preemergence; type: in vivo, Amaranthus palmeri; settings: 500 g ai/ha, preemergence; 0 to 100 scale (0 no effect, 100 complete control)
In short: as §1

[10] = tested on: barnyardgrass; assay: Test C preemergence; type: in vivo, Echinochloa crusgalli
In short: as §1

[11] = tested on: wheat; assay: Test C preemergence; type: in vivo, Triticum aestivum
In short: as §1

[12] = tested on: green foxtail; assay: Test C postemergence; type: in vivo, Setaria viridis; settings: 10 days, 0 to 100 scale (0 no effect, 100 complete control)
In short: as §1

[13] = tested on: wheat; assay: Test C postemergence; type: in vivo, Triticum aestivum; settings: 10 days, 0 to 100 scale (0 no effect, 100 complete control)
In short: as §1

[14] = tested on: sedge, umbrella; assay: Test D flooded paddy test; type: in vivo, Cyperus difformis; settings: 250 g ai/ha, applied to paddy water, visual rating after 13 to 14 days, scale 0 to 100 (0 no effect, 100 complete control)
In short: as §2

[15] = tested on: corn; assay: Test C postemergence; type: in vivo, Zea mays; settings: 10 days, 0 to 100 scale (0 no effect, 100 complete control)
In short: as §1

[16] = tested on: oat, wild; assay: Test C preemergence; type: in vivo, Avena fatua
In short: as §1

[17] = tested on: pigweed, palmer; assay: Test C postemergence; type: in vivo, Amaranthus palmeri; settings: 500 g ai/ha, postemergence, 10 days, 0 to 100 scale (0 no effect, 100 complete control)
In short: as §1

[18] = tested on: kochia; assay: Test C postemergence; type: in vivo, Bassia scoparia; settings: 500 g ai/ha, postemergence, 10 days, 0 to 100 scale (0 no effect, 100 complete control)
In short: as §1

[19] = tested on: soybean; assay: Test C preemergence; type: in vivo, Glycine max
In short: as §1

[20] = tested on: kochia; assay: Test C preemergence; type: in vivo, Bassia scoparia
In short: as §1

[21] = tested on: green foxtail; assay: Test C preemergence; type: in vivo, Setaria viridis
In short: as §1

[22] = tested on: barnyardgrass; assay: Test C postemergence; type: in vivo, Echinochloa crusgalli; settings: 10 days, 0 to 100 scale (0 no effect, 100 complete control)
In short: as §1

[23] = tested on: corn; assay: Test C preemergence; type: in vivo, Zea mays
In short: as §1

[24] = tested on: oat, wild; assay: Test C postemergence; type: in vivo, Avena fatua; settings: 10 days, 0 to 100 scale (0 no effect, 100 complete control)
In short: as §1

[25] = tested on: horseweed; assay: Test C postemergence; type: in vivo, Erigeron canadensis; settings: 10 days, 0 to 100 scale (0 no effect, 100 complete control)
In short: as §1

[26] = tested on: blackgrass; assay: Test C preemergence; type: in vivo, Alopecurus myosuroides
In short: as §1

[27] = tested on: soybean; assay: Test C postemergence; type: in vivo, Glycine max; settings: 500 g ai/ha, postemergence, 10 days, 0 to 100 scale (0 no effect, 100 complete control)
In short: as §1

[28] = tested on: galium; assay: Test C postemergence; type: in vivo, Galium aparine; settings: 500 g ai/ha, postemergence, 10 days, 0 to 100 scale (0 no effect, 100 complete control)
In short: as §1

[29] = 500 g ai/ha, preemergence, 0 to 100 scale (0 no effect, 100 complete control)
[30] = Preemergence, 125 g ai/ha, 0 to 100 scale, 0 no effect, 100 complete control

Cc1nnc(-c2cccc(C(=O)N3C[C@H](C)Oc4c(Cl)cccc43)c2)o1 [Compound 355]
Ryegrass, Italian plant response rating [1, 29]: 20 | Plant response rating, Ryegrass, Italian [1, 30]: 20 | Plant response rating, Rice (Flood) [2]: 0 | Plant response rating, Ryegrass, Italian ([3]; 500 g ai/ha, postemergence): 0 | Plant response rating, Ryegrass, Italian ([3]; Postemergence, 125 g ai/ha): 0 | Plant response rating, Blackgrass ([4]; 500 g ai/ha, postemergence): 0 | Plant response rating, Blackgrass ([4]; Postemergence, 125 g ai/ha): 0 | Plant response rating, Ducksalad (Flood) [5]: 0 | Plant response rating, Barnyardgrass (Flood) [6]: 0 | Ragweed plant response rating [7, 29]: 0 | Plant response rating, Ragweed [7, 30]: 0 | Plant response rating, Ragweed [8]: 0 | Pigweed, Palmer plant response rating [9]: 0 | Barnyardgrass plant response rating [10, 29]: 0 | Plant response rating, Barnyardgrass [10, 30]: 0 | Wheat plant response rating [11, 29]: 0 | Plant response rating, Wheat [11, 30]: 0 | Plant response rating, Foxtail, Green ([12]; 500 g ai/ha, postemergence): 10 | Plant response rating, Foxtail, Green ([12]; Postemergence, 125 g ai/ha): 10 | Plant response rating, Wheat ([13]; 500 g ai/ha, postemergence): 10 | Plant response rating, Wheat ([13]; Postemergence, 125 g ai/ha): 10 | Plant response rating, Sedge, Umbrella (Flood) [14]: 0 | Plant response rating, Corn ([15]; 500 g ai/ha, postemergence): 10 | Plant response rating, Corn ([15]; Postemergence, 125 g ai/ha): 10 | Oat, Wild plant response rating [16, 29]: 0 | Plant response rating, Oat, Wild [16, 30]: 0 | Plant response rating, Pigweed, Palmer [17]: 10 | Plant response rating, Kochia [18]: 0 | Soybean plant response rating [19, 29]: 0 | Plant response rating, Soybean [19, 30]: 20 | Kochia plant response rating [20, 29]: 0 | Plant response rating, Kochia [20, 30]: 0 | Foxtail, Green plant response rating [21, 29]: 20 | Plant response rating, Foxtail, Green [21, 30]: 20 | Plant response rating, Barnyardgrass ([22]; 500 g ai/ha, postemergence): 10 | Plant response rating, Barnyardgrass ([22]; Postemergence, 125 g ai/ha): 10 | Corn plant response rating [23, 29]: 0 | Plant response rating, Corn [23, 30]: 0 | Plant response rating, Oat, Wild ([24]; 500 g ai/ha, postemergence): 0 | Plant response rating, Oat, Wild ([24]; Postemergence, 125 g ai/ha): 0 | Plant response rating, Horseweed ([25]; 500 g ai/ha, postemergence): 0 | Plant response rating, Horseweed ([25]; Postemergence, 125 g ai/ha): 0 | Blackgrass plant response rating [26, 29]: 0 | Plant response rating, Blackgrass [26, 30]: 0 | Plant response rating, Soybean [27]: 50 | Plant response rating, Galium [28]: 10
